Earlier results as cited in PMC6574176 (Biomaterials, 2019).

Conditions: rapidly bio-eliminated

## CC1(C)C(/C=C/C=C/C=C/C=C2\N(CCCCS(=O)(=O)O)c3ccc4ccccc4c3C2(C)C)=[N+](CCCCS(=O)(=O)[O-])c2ccc3ccccc3c21 [free ICG, Indocyanine Green]
  t1/2 of free ICG: 2 to 4 min
